Results published in US4065619A, “7-(α-Sulfoacylamido)cephalosporins” (Takeda Chemical Industries, Ltd., priority 1971, dated 1977).
Converted amounts (≈) assume the structure as drawn. Blank lines part the entries; values can stand above or below the molecule they belong to.

Experiments:
Type in all cases: cell-based
[1] = test system: Pseudomonas aeruginosa (Pd 12); experiment: Minimum inhibitory concentration, Pseudomonas aeruginosa (Pd 12)
[2] = test system: Pseudomonas aeruginosa (Pd 13); experiment: Minimum inhibitory concentration, Pseudomonas aeruginosa (Pd 13)
[3] = test system: Pseudomonas aeruginosa (Pd 1); experiment: Minimum inhibitory concentration, Pseudomonas aeruginosa (Pd 1)
[4] = test system: Pseudomonas aeruginosa (NCTC 10490); experiment: Minimum inhibitory concentration, Pseudomonas aeruginosa (NCTC 10490); conditions: NCTC10490
[5] = test system: Staphylococcus aureus (209P); experiment: Minimum inhibitory concentration, Staphylococcus aureus 209P
[6] = test system: Staphylococcus aureus (penicillin G resistant); experiment: Minimum inhibitory concentration, Staphylococcus aureus (penicillin G resistant)
[7] = test system: Pseudomonas aeruginosa (T-3); experiment: Minimum inhibitory concentration, Pseudomonas aeruginosa (T-3)
[8] = test system: Pseudomonas aeruginosa (NCTC); experiment: Minimum inhibitory concentration, Pseudomonas aeruginosa (NCTC)
[9] = test system: Staphylococcus aureus (No. 87, penicillin G resistant); experiment: Minimum inhibitory concentration, Staphylococcus aureus (No. 87, penicillin G resistant)
[10] = test system: Pseudomonas aeruginosa (10490); experiment: Minimum inhibitory concentration, Pseudomonas aeruginosa (10490)
Pseudomonas aeruginosa = experiment: Minimum inhibitory concentration, Pseudomonas aeruginosa (strain not given)

MIC [1]: 10 µg/mL (≈ 18.3 µM)
Compound: NNC(=O)c1cc[n+](CC2=C(C(=O)[O-])N3C(=O)[C@@H](NC(=O)C(c4ccccc4)S(=O)(=O)O)[C@H]3SC2)cc1 (some centres unmarked)

MIC [1]: 1 µg/mL (≈ 1.88 µM)
Compound: NC(=O)c1ccc[n+](CC2=C(C(=O)[O-])N3C(=O)[C@@H](NC(=O)C(c4ccccc4)S(=O)(=O)O)[C@H]3SC2)c1 (some centres unmarked)

MIC [1]: 10 µg/mL (≈ 20.4 µM)
MIC [2]: 5 µg/mL (≈ 10.2 µM)
MIC [3]: 2 µg/mL (≈ 4.09 µM)
MIC [4]: 1 µg/mL (≈ 2.04 µM)
MIC [5]: 1 µg/mL (≈ 2.04 µM)
MIC [6]: 2 µg/mL (≈ 4.09 µM)
MIC [7]: 5 µg/mL (≈ 10.2 µM)
Compound: O=C([O-])C1=C(C[n+]2ccccc2)CS[C@@H]2[C@H](NC(=O)C(c3ccccc3)S(=O)(=O)O)C(=O)N12 (some centres unmarked) [Example 1]

MIC [3]: 1 µg/mL
MIC [8]: 0.5 µg/mL
Compound: NC(=O)c1cc[n+](CC2=C(C(=O)[O-])N3C(=O)[C@@H](NC(=O)C(c4ccccc4)S(=O)(=O)O)[C@H]3SC2)cc1 (stereo partly drawn) [Example 3, sodium N-[7-(α-sulfophenylacetamido)ceph-3-em-3-ylmethyl]-4'-carbamoyl-pyridinium-4-carboxylate]

MIC [5]: 5 µg/mL
MIC (Pseudomonas aeruginosa): 5 µg/mL
Compound: Nc1ccc(C(C(=O)NC2C(=O)N3C(C(=O)[O-])=C(C[n+]4ccccc4)CSC23)S(=O)(=O)O)cc1 (stereo not drawn) [Example 9, sodium 7-[α-sulfo-α-(p-aminophenyl)acctamido]-3-(pyridiniummethyl)ceph-3-em-4-carboxylate]

MIC [3]: 2 µg/mL (≈ 4.04 µM)
MIC [4]: 1 µg/mL (≈ 2.02 µM)
Compound: O=C([O-])C1=C(C[n+]2ccccc2)CS[C@@H]2[C@H](NC(=O)C(c3ccsc3)S(=O)(=O)O)C(=O)N12 (some centres unmarked) [Example 13]

MIC [1]: 0.5 µg/mL (≈ 0.939 µM)
Compound: NC(=O)c1cc[n+](CC2=C(C(=O)[O-])N3C(=O)[C@@H](NC(=O)C(c4ccccc4)S(=O)(=O)O)[C@H]3SC2)cc1 (some centres unmarked) [drawing 13]

Further lines, the molecule ahead of its results:

Compound: O=C([O-])C1=C(C[n+]2cccc3ccccc32)CS[C@@H]2[C@H](NC(=O)C(c3ccccc3)S(=O)(=O)O)C(=O)N12 (some centres unmarked)
MIC [1]: 5 µg/mL (≈ 9.27 µM)

Compound: O=C([O-])C1=C(C[n+]2cccc(C(=O)O)c2)CS[C@@H]2[C@H](NC(=O)C(c3ccccc3)S(=O)(=O)O)C(=O)N12 (some centres unmarked)
MIC [1]: 5 µg/mL (≈ 9.37 µM)

Compound: O=C([O-])C1=C(C[n+]2ccc3ccccc3c2)CS[C@@H]2[C@H](NC(=O)C(c3ccccc3)S(=O)(=O)O)C(=O)N12 (some centres unmarked)
MIC [1]: 5 µg/mL (≈ 9.27 µM)

Compound: Cc1cccc[n+]1CC1=C(C(=O)[O-])N2C(=O)[C@@H](NC(=O)C(c3ccccc3)S(=O)(=O)O)[C@H]2SC1 (stereo partly drawn) [Example 5, sodium N-[7-(α-sulfophenylacetamido)-ceph-3-em-3-ylmethyl]-2'-methylpyridinium-4-carboxylate]
MIC [3]: 3 µg/mL
MIC [4]: 2 µg/mL

Compound: CCCCC(C(=O)NC1C(=O)N2C(C(=O)[O-])=C(C[n+]3ccccc3)CSC12)S(=O)(=O)O (centres unmarked) [Example 7]
MIC [9]: 2 µg/mL (≈ 4.26 µM)
MIC [10]: 2 µg/mL (≈ 4.26 µM)
